From BindingDB's records for doi:10.7270/Q24X5684 (Nmmlsc, 2010)

Molecular target: T1, Integrin alpha-4 (Homo sapiens, UniProt P13612)
T1 sequence (P13612 whole entry): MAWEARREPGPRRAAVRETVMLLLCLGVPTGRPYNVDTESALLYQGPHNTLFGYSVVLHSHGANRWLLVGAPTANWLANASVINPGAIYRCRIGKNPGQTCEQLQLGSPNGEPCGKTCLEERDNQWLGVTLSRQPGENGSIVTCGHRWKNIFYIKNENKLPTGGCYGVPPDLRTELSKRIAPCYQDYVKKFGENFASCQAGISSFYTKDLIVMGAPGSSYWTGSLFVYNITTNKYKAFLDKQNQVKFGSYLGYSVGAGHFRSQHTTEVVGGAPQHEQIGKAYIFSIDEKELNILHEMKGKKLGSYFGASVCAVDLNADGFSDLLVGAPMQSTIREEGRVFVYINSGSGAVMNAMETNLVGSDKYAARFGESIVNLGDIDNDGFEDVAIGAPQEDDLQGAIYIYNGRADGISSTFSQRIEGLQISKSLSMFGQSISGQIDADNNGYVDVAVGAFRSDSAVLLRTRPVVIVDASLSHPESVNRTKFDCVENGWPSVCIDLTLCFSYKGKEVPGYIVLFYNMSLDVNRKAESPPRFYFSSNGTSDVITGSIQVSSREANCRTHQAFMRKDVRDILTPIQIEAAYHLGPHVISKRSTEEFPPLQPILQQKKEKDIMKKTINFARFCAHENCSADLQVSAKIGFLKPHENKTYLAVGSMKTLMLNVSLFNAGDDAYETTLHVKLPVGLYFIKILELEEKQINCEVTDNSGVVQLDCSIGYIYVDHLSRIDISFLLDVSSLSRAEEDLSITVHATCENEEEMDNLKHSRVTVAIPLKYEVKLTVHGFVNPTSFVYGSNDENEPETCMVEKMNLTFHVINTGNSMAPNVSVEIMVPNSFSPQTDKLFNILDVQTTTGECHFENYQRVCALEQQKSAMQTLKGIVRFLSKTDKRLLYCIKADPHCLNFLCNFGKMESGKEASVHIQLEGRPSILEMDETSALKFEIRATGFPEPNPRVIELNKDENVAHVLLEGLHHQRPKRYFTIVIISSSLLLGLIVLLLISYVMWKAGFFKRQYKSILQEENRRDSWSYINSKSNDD
Assay: VLA-4 integrin allosteric ligands, SAR follow-up, cell-based, LIBS antibody binding, flow cytometry (AID 488791)

Structure (SMILES)	EC50
Cc1ccc(NC(=O)c2cc(-n3c(O)ccc3O)ccc2N2CCOCC2)cc1Cl [VU0419498-1]	23.3 µM
Cc1ccc(NC(=O)c2cc(-n3c(O)ccc3O)ccc2N2CCOCC2)cc1	16.4 µM
